Values of other authors in paper PMC2409929 (British Journal of Cancer, 2004).
Marks after values point to notes of the source that are not given here.

Legend:
[1] = N=6, mean±s.d., ref 16 (Herben et al, 1999), cited from earlier work
[2] = system: topo-isomerase I; set-up: method as in Slatter et al, 1997; conditions: in vitro models; ref Slatter et al, 1997; cited from earlier work
[3] = after irinotecan 140 mg m^−2: 10 mg m^−2 as 14-day prolonged infusions

CCc1c2c(nc3ccc(O)cc13)-c1cc3c(c(=O)n1C2)COC(=O)[C@]3(O)CC [SN-38, 7-ethyl-10-hydroxycamptothecin]
Metabolic ratio (SN-38 AUC over irinotecan AUC) ([1]; 140 mg m^−2: 10 mg m^−2 irinotecan as 14-day prolonged infusions): 0.12±0.02 ^b | SN-38 AUC [1, 3]: 1400 ± 300 nM·h | SN-38 AUCc (AUC per cycle) [1, 3]: 4200 ± 900 nM·h | Potency as topo-isomerase I inhibitor relative to parent compound (irinotecan) [2]: 100–1000 times
